The target in one test is prothrombinase complex (Homo sapiens, UniProt P00742). Put plainly: prothrombinase inhibition assay (plasma free system, Chromozym TH). The class given is biochemical. The procedure: The prothrombinase inhibition assay is performed in a plasma free system with modifications to the method described by Sinha, U. et al., Thromb. […] Specifically, the activity of the prothrombinase complex is determined by measuring the time course of thrombin generation using the p-nitroanilide substrate Chromozym TH. […] Aliquots from the complex-inhibitor mixture are added to prothrombin (1 nM) and Chromozym TH (0.1 mM). […] Eight different concentrations of inhibitor are assayed in duplicate. A standard curve of thrombin generation by an equivalent amount of untreated complex is used for determination of percent inhibition.
Chain of prothrombinase complex (P00742 41-179 limits assumed): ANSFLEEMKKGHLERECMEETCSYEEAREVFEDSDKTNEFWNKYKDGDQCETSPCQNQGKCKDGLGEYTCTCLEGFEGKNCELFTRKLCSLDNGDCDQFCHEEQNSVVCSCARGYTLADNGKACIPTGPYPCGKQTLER
Chain of prothrombinase complex (P00742 235-488 limits assumed): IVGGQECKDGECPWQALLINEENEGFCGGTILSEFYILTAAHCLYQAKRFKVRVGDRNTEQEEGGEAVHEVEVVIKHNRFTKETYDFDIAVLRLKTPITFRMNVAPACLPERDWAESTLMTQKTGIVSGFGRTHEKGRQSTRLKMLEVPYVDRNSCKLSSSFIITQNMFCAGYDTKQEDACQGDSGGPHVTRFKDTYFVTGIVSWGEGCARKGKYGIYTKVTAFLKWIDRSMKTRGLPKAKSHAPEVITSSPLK
Chain of prothrombinase complex (P12259 29-737 partner limits assumed): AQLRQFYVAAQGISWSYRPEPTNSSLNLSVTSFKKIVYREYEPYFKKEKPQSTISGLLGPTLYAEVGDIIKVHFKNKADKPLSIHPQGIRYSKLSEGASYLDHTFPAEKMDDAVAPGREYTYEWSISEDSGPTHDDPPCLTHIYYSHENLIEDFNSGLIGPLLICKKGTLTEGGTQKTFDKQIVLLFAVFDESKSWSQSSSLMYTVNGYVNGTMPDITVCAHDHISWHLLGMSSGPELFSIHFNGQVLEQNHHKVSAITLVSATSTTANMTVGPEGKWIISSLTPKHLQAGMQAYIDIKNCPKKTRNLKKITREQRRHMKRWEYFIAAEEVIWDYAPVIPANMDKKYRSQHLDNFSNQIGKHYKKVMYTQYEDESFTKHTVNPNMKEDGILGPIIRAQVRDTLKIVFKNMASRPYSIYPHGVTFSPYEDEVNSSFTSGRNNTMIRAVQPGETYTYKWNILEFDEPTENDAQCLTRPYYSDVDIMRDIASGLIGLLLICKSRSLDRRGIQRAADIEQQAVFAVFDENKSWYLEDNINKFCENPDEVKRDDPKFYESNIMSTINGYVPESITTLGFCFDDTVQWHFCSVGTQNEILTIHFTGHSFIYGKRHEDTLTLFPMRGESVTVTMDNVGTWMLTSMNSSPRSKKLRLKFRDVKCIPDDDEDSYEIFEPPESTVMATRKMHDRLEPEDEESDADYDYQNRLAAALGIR
Chain of prothrombinase complex (P12259 1574-2224 partner limits assumed): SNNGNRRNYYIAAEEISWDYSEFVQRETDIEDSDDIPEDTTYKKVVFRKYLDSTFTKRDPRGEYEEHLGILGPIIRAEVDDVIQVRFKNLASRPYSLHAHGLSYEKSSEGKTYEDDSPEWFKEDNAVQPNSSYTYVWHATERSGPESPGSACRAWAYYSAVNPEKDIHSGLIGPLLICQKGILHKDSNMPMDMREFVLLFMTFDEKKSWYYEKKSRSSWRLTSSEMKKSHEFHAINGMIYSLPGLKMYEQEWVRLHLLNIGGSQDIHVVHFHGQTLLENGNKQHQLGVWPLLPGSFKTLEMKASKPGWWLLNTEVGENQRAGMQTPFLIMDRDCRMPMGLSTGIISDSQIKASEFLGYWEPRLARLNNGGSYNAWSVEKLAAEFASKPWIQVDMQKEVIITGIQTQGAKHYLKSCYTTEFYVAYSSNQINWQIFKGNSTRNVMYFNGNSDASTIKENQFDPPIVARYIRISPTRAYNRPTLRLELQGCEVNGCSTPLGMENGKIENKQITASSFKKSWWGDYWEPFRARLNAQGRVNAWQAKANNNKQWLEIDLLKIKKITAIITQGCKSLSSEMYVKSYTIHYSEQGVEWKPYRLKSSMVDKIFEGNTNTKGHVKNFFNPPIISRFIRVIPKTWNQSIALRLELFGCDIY

For the next test, the target named is thrombin (Homo sapiens, UniProt P00734). Put plainly: thrombin amidolytic assay (Chromozym TH).
Another test has as its target factor Xa (Homo sapiens, UniProt P00742). The test is described as follows: factor Xa amidolytic assay (chromogenic substrate S-2765).
Setting [1] is: Table 3, probe of regiochemistry.

The source of these data is patent US20020013314A1, “3,4-dihydro-2H-benzo[1,4]oxazine inhibitors of factor Xa” (priority 2000, published 2002).

Where only a bound is given, the exact number is not on record here.

Chain of factor Xa (P00742 41-179 limits assumed): as the sequence (P00742 41-179 limits assumed) above
Chain of factor Xa (P00742 235-488 limits assumed): as the sequence (P00742 235-488 limits assumed) above
Procedure for factor Xa: In the assays for thrombin, prothrombinase and factor Xa, a synthetic chromogenic substrate is added to a solution containing test compound and the enzyme of interest and the residual catalytic activity of that enzyme is determined spectrophotometrically. The IC50 of a compound is determined from the substrate turnover. […] The factor Xa and thrombin assays are performed at room temperature, in 0.02 M Tris·HCl buffer, pH 7.5, containing 0.15 M NaCl.

On to `CC(=N)N1CCC(Oc2ccc3c(c2)OCC(=O)N3Cc2cccc(-c3cccc(C(=N)N)c3)c2)CC1` [Cmpd 23], for which the IC50 against prothrombinase complex (setting [1]) worked out at 214 nM; against thrombin it was 11 µM; against factor Xa, 0.0376 µM.

As to `CC(=N)N1CCC(Oc2ccc3c(c2)OCC(=O)N3Cc2ccc3ccc(C(=N)N)cc3c2)CC1` [Cmpd 24], the IC50 at thrombin came to 334 µM.

For the compound `CC(=N)N1CCC(Oc2ccc3c(c2)N(Cc2cccc(-c4cccc(C(=N)N)c4)c2)C(=O)CO3)CC1` [Cmpd 25], the IC50 on prothrombinase complex (setting [1]) is 934 nM; on thrombin, 5.37 µM; against factor Xa, 0.344 µM.

In the case of `CC(=N)N1CCC(Oc2ccc3c(c2)N(Cc2ccc4ccc(C(=N)N)cc4c2)C(=O)CO3)CC1` [Cmpd 26], the IC50 was determined as 352 nM against prothrombinase complex (setting [1]), 81 µM on thrombin and 0.191 µM at factor Xa.

For the compound `CC(=N)N1CCC(Oc2ccc3c(c2)OCC(=O)N3Cc2cc(-c3cccc(C(=N)N)c3)no2)CC1` [Cmpd 27], the figures for the 50% inhibitory concentration (IC50) against prothrombinase complex (Table 4), against thrombin and against factor Xa were 159 nM, 250 µM and 0.0524 µM, respectively.

Regarding `CC(=N)N1CCC(Oc2ccc3c(c2)OCC(=O)N3Cc2cc3ccc(C(=N)N)cc3n2C)CC1` [Cmpd 28], the values for the IC50 against prothrombinase complex (Table 4) and against factor Xa were 6.6 nM and 0.002 µM, respectively.

As to `N=C(N)c1ccc(C(=O)Nc2ccc3c(c2)OCC(=O)N3Cc2ccc3ccc(C(=N)N)cc3c2)cc1` [Cmpd 31], the results for the IC50 on prothrombinase complex (Table 5), at thrombin and against factor Xa were 67500 nM, 204 µM and 10.1 µM, respectively.

For the compound `N=C(N)c1ccc2ccc(CN3C(=O)COc4cc(NS(=O)(=O)c5ccccc5)ccc43)cc2c1` [Cmpd 32], the results for the IC50 against prothrombinase complex (Table 5), at thrombin and at factor Xa were 55200 nM, 34.5 µM and 21.9 µM, respectively.

`COc1ccc(S(=O)(=O)Nc2ccc3c(c2)OCC(=O)N3Cc2ccc3ccc(C(=N)N)cc3c2)cc1` [Cmpd 33]: the IC50 worked out at 81000 nM against prothrombinase complex (Table 5), 34.9 µM against thrombin and 38.2 µM against factor Xa.

Turning to `N=C(N)c1ccc2ccc(CN3C(=O)COc4cc(NS(=O)(=O)c5cccc6ncccc56)ccc43)cc2c1` [Cmpd 34], the values for the 50% inhibitory concentration (IC50) on prothrombinase complex (Table 5), against thrombin and against factor Xa were 364000 nM, 109 µM and 19.5 µM, respectively.

`N=C(N)c1ccc2ccc(CN3C(=O)COc4cc(NS(=O)(=O)c5ccc6cc(Br)ccc6c5)ccc43)cc2c1` [Cmpd 35]: the IC50 against prothrombinase complex (Table 5) came out at 98000 nM; against thrombin, 83.7 µM; at factor Xa, 268 µM.

Regarding `N=C(N)c1ccc2ccc(CN3C(=O)COc4ccc(-c5ccccc5S(N)(=O)=O)cc43)cc2c1` [Cmpd 36], the IC50 on prothrombinase complex (Table 6, monoamidine) was determined as 2000 nM; against thrombin, 26.7 µM; against factor Xa it was 0.068 µM.

For `N=C(N)c1cccc(-c2cccc(CN3C(=O)COc4ccc(-c5ccccc5S(N)(=O)=O)cc43)c2)c1` [Cmpd 37], the half-inhibitory concentration (IC50) against prothrombinase complex (Table 6, monoamidine) worked out at 3000 nM; at thrombin it was 8.7 µM; against factor Xa, 0.89 µM.

For the compound `Cc1cc(CN2C(=O)COc3cc(-c4ccccc4S(N)(=O)=O)ccc32)n(-c2cccc(C(=N)N)c2)n1` [Cmpd 38], the IC50 is over 11000 nM at prothrombinase complex (Table 6, monoamidine); over 11 µM against thrombin; over 11 µM at factor Xa.
